Laboratory results reported in PubChem BioAssay (NCI).
“And” between values parts separate entries of the source, which are not always exact repeats. Identical values can stand only once.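 Assay format: 96-well plates, 48-hour exposure. GI50: concentration for 50% inhibition of growth. TGI denotes the concentration required for complete inhibition of growth.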

Columns and labels:
Assay in all cases: growth of human tumour cells (NCI), 48 h
HCT-116 colon = system: HCT-116 colon
HL-60(TB) leukemia = system: HL-60(TB) leukemia
MALME-3M melanoma = system: MALME-3M melanoma
NCI-H226 lung = system: NCI-H226 lung
NCI-H23 lung = system: NCI-H23 lung
NCI-H460 lung = system: NCI-H460 lung
RPMI-8226 leukemia = system: RPMI-8226 leukemia
SK-MEL-5 melanoma = system: SK-MEL-5 melanoma
U251 CNS = system: U251 CNS
UACC-257 melanoma = system: UACC-257 melanoma

Structure (SMILES)	GI50 (HCT-116 colon) [µM]	TGI (HCT-116 colon)	GI50 (HL-60(TB) leukemia) [µM]	TGI (HL-60(TB) leukemia) [µM]	GI50 (MALME-3M melanoma) [µM]	TGI (MALME-3M melanoma)	GI50 (NCI-H226 lung) [µM]	TGI (NCI-H226 lung)	GI50 (NCI-H23 lung) [µM]	TGI (NCI-H23 lung)	GI50 (NCI-H460 lung) [µM]	TGI (NCI-H460 lung)	GI50 (RPMI-8226 leukemia) [µM]	TGI (RPMI-8226 leukemia) [µM]	GI50 (SK-MEL-5 melanoma) [µM]	TGI (SK-MEL-5 melanoma) [µM]	GI50 (U251 CNS) [µM]	TGI (U251 CNS) [µM]	GI50 (UACC-257 melanoma) [µM]	TGI (UACC-257 melanoma)
Cn1c(I)c(C#CCO[Si](C)(C)C(C)(C)C)c(=O)[nH]c1=O	14.3	28.5 µM	2.43	4.83	1.78	3.85 µM	17.1	32.7 µM	19.3	39.5 µM	53.8	> 100 µM	4.39	14.2	17.1	31.3	17.4	31.9	12.9	27.3 µM
CCOC(=O)c1cnc2c(ccc3[nH]n(C)nc32)c1=O	–	61.4 µM	–	> 100	–	> 100 µM	–	> 100 µM	–	> 100 µM	–	> 100 µM	–	67.5	–	> 100	–	68.9	–	> 100 µM
CCOC(=O)C1=CN(C)C=C(C(=O)OCC)C1c1cc(Br)c(OCC)c(OC)c1	25.9	> 100 µM	> 100	> 100	> 100	> 100 µM	> 100	> 100 µM	> 100	> 100 µM	43.5	> 100 µM	25.8	> 100	49.2	> 100	> 100	> 100	> 100	> 100 µM
Cc1cc(Cl)cc(OCCn2cc(F)cn2)c1-c1nc(N)nc2c1CN(C(=O)NCC(C)(F)F)C2	0.0548	> 100 µM	0.0407	> 100	0.0684	> 100 µM	0.233	> 100 µM	0.273	> 100 µM	0.0414	> 100 µM	–	> 100	0.179	> 100	0.114	> 100	0.142	> 100 µM
O=C(/C=C/c1ccccc1)CCC1C(=O)c2ccccc2C1=O	–	> 100 µM	–	> 100	–	> 100 µM	–	> 100 µM	–	> 100 µM	–	> 100 µM	–	> 100	–	> 100	–	> 100	–	> 100 µM
COc1cc(OCc2cccc(-c3ccc(C(O)c4nccs4)cc3)c2C)cc(OC)c1C=O (centres undefined)	1.44	4.51 µM	1.87	4.85	2.7	7.9 µM	0.37	2.7 µM	1.92	10.2 µM	1.09	10.7 µM	1.34	5.47	1.11	2.4	2.74	11.3	0.842	5.11 µM
CN(C)CCNC(=O)c1cccc2ccc(-c3ccc(O)cc3)nc12	0.879	2.78 µM and 10.7 µM	–	3.36	0.863	6.08 µM and 2.9 µM	0.94	6.33 µM and 3.6 µM	–	10.1 µM and 12.4 µM	0.637	2.85 µM and 2.99 µM	–	8.56	–	2.96	–	10.4	1.06	8.29 µM and 10.1 µM
Cc1ccc(S(=O)(=O)Nc2ccccc2C=O)cc1	–	28 µM	–	27.6	–	46.1 µM	–	41.5 µM	–	66.8 µM	–	47 µM	–	36	–	25.1	–	30.2	–	45.7 µM
CC12C/C(=C\c3ccccc3)C(=O)C3C1CCCC32	–	> 100 µM	–	55.6	–	> 100 µM	–	> 100 µM	–	> 100 µM	–	> 100 µM	–	> 100	–	> 100	–	> 100	–	> 100 µM
COc1cccc(C2CC(C)(O)Oc3cc4c(cc32)OCO4)c1O (centres undefined)	–	> 69.4 µM	–	> 59	–	> 100 µM	–	57.9 µM	–	92.9 µM	–	> 92.7 µM	–	> 78.2	–	> 61.3	–	70.4	–	> 100 µM
C/C=C(\C)C(=O)O[C@H]1C=CC(=O)O[C@H]1CCC(=O)[C@H](C)O	2.87	11.2 µM	7.34	24.8	15.5	32.1 µM	15.1	34.8 µM	20.5	43.9 µM	19.2	43.2 µM	8.88	34	13.8	27.1	12.9	26.4	22.6	> 57 µM
COc1ccccc1/C=N\N/C(N)=N\N=C\c1ccccc1OC	0.358	5.55 µM	0.215	0.558	0.237	5.2 µM	8.31	> 47 µM	0.618	> 31.2 µM	0.348	4.37 µM	0.281	0.806	0.371	4.14	1.02	> 39.9	4.29	> 23.6 µM
